Measured values reported in paper PMC10269775, “Penicillin-Binding Protein Occupancy Dataset for 18 β-Lactams and 4 β-Lactamase Inhibitors in Neisseria gonorrhoeae” (Microbiology Spectrum, 2023).
Values after ≈ are worked out from the molar mass of the structure shown.

What follows are compounds tested against T1, PBP1 (Neisseria gonorrhoeae, UniProt O05131) (assay: PBP-binding assay (Bocillin FL) in isolated membrane preparations). Settings: strain ATCC 19424; membrane preparation, 30 min drug then Bocillin FL; read-out: IC50 PBP1 (converted).
T1 construct: endogenous in cells; host or cells: N. gonorrhoeae ATCC 19424, isolated membrane preparation
Text: (§1) Bacterial membranes were collected by ultracentrifugation.

Row | Structure (SMILES) | IC50
1 | CC1(C)S[C@@H]2[C@H](NC(=O)C(C(=O)O)c3ccccc3)C(=O)N2[C@H]1C(=O)O (stereo partly shown) [CAR, carbenicillin] | > 5290 nM
2 | CC(C)(O/N=C(\C(=O)N[C@@H]1C(=O)N2C(C(=O)[O-])=C(C[n+]3ccccc3)CS[C@H]12)c1csc(N)n1)C(=O)O [CAZ, ceftazidime] | > 3660 nM

What follows are compounds tested against T2, PBP2 (Neisseria gonorrhoeae, UniProt P08149, H541N) in the same assay as above. Settings: IC50 PBP2, strain ATCC 19424; membrane preparation, 30 min drug then Bocillin FL.
T2 construct: endogenous in cells; host or cells: N. gonorrhoeae ATCC 19424, isolated membrane preparation
Parameters: species or system Neisseria gonorrhoeae ATCC 19424

Row | Structure (SMILES) | IC50
3 | CC1(C)S[C@@H]2[C@H](NC(=O)C(C(=O)O)c3ccccc3)C(=O)N2[C@H]1C(=O)O (stereo partly shown) [CAR, carbenicillin] | 344 nM
4 | CC(C)(O/N=C(\C(=O)N[C@@H]1C(=O)N2C(C(=O)[O-])=C(C[n+]3ccccc3)CS[C@H]12)c1csc(N)n1)C(=O)O [CAZ, ceftazidime] | 18.3 nM

What follows are compounds tested against T3, PBP1 (Neisseria gonorrhoeae, UniProt O05131, A375T/F666S) in the same assay as above. Settings: IC50 PBP1 (Table S1), strain ATCC 49226.
T3 construct: endogenous in cells; host or cells: N. gonorrhoeae ATCC 49226, isolated membrane preparation
Parameters: species or system Neisseria gonorrhoeae ATCC 49226
Text: as §1

Row | Structure (SMILES) | IC50
5 | CC1(C)S[C@@H]2[C@H](NC(=O)C(C(=O)O)c3ccccc3)C(=O)N2[C@H]1C(=O)O (stereo partly shown) [CAR, carbenicillin] | > 5290 nM

Same assay, conditions: IC50 PBP1, strain ATCC 49226; membrane preparation, 30 min drug then Bocillin FL

Row | Structure (SMILES) | IC50
6 | CC(C)(O/N=C(\C(=O)N[C@@H]1C(=O)N2C(C(=O)[O-])=C(C[n+]3ccccc3)CS[C@H]12)c1csc(N)n1)C(=O)O [CAZ, ceftazidime] | > 3660 nM

Each compound was assayed against T4, PBP2 (Neisseria gonorrhoeae, UniProt P08149, A510V/A516G/A574V/F504L/H541N/I556V/I566V/K555Q/P552V) (assay: biochemical). Settings: IC50 PBP2 (Table S1), strain ATCC 49226.
T4 construct: endogenous in cells; host or cells: N. gonorrhoeae ATCC 49226, isolated membrane preparation
Assay type: binding, Neisseria gonorrhoeae ATCC 49226

Row | Structure (SMILES) | IC50
7 | CC1(C)S[C@@H]2[C@H](NC(=O)C(C(=O)O)c3ccccc3)C(=O)N2[C@H]1C(=O)O (stereo partly shown) [CAR, carbenicillin] | > 5290 nM

Same assay, conditions: IC50 PBP2, strain ATCC 49226; membrane preparation, 30 min drug then Bocillin FL

Row | Structure (SMILES) | IC50
8 | CC(C)(O/N=C(\C(=O)N[C@@H]1C(=O)N2C(C(=O)[O-])=C(C[n+]3ccccc3)CS[C@H]12)c1csc(N)n1)C(=O)O [CAZ, ceftazidime] | 18.3 nM

The compounds below were run on N. gonorrhoeae ATCC 19424 (assay: MIC, CLSI broth microdilution). Settings: Neisseria gonorrhoeae, ATCC19424; strain ATCC 19424; read-out: MIC.
Assay type: cell-based

Row | Structure (SMILES) | MIC
9 | CC1(C)S[C@@H]2[C@H](NC(=O)C(C(=O)O)c3ccccc3)C(=O)N2[C@H]1C(=O)O (stereo partly shown) [CAR, carbenicillin] | 0.032 µg/mL (≈ 0.0846 µM)
10 | CC(C)(O/N=C(\C(=O)N[C@@H]1C(=O)N2C(C(=O)[O-])=C(C[n+]3ccccc3)CS[C@H]12)c1csc(N)n1)C(=O)O [CAZ, ceftazidime] | 0.016 µg/mL (≈ 0.0293 µM)

Same assay, conditions: Neisseria gonorrhoeae, ATCC19424; strain ATCC 19424; read-out: MIC (Table S1)

Row | Structure (SMILES) | MIC
11 | CC1(C)S[C@@H]2[C@H](NC(=O)C(C(=O)O)c3ccccc3)C(=O)N2[C@H]1C(=O)O (stereo partly shown) [CAR, carbenicillin] | 0.032 µg/mL (≈ 0.0846 µM)
12 | CC(C)(O/N=C(\C(=O)N[C@@H]1C(=O)N2C(C(=O)[O-])=C(C[n+]3ccccc3)CS[C@H]12)c1csc(N)n1)C(=O)O [CAZ, ceftazidime] | 0.016 µg/mL (≈ 0.0293 µM)

These compounds were tested on N. gonorrhoeae ATCC 49226 (assay: MIC, CLSI broth microdilution). Settings: Neisseria gonorrhoeae, ATCC49226; strain ATCC 49226; read-out: MIC.
Assay type: cell-based, Neisseria gonorrhoeae

Row | Structure (SMILES) | MIC
13 | CC1(C)S[C@@H]2[C@H](NC(=O)C(C(=O)O)c3ccccc3)C(=O)N2[C@H]1C(=O)O (stereo partly shown) [CAR, carbenicillin] | 0.5 µg/mL (≈ 1.32 µM)
14 | CC(C)(O/N=C(\C(=O)N[C@@H]1C(=O)N2C(C(=O)[O-])=C(C[n+]3ccccc3)CS[C@H]12)c1csc(N)n1)C(=O)O [CAZ, ceftazidime] | 0.032 µg/mL (≈ 0.0585 µM)

Same assay, conditions: Neisseria gonorrhoeae, ATCC49226; strain ATCC 49226; read-out: MIC (Table S1)

Row | Structure (SMILES) | MIC
15 | CC1(C)S[C@@H]2[C@H](NC(=O)C(C(=O)O)c3ccccc3)C(=O)N2[C@H]1C(=O)O (stereo partly shown) [CAR, carbenicillin] | 0.5 µg/mL (≈ 1.32 µM)
16 | CC(C)(O/N=C(\C(=O)N[C@@H]1C(=O)N2C(C(=O)[O-])=C(C[n+]3ccccc3)CS[C@H]12)c1csc(N)n1)C(=O)O [CAZ, ceftazidime] | 0.032 µg/mL (≈ 0.0585 µM)

What follows are compounds tested against PBP1, PBP2 and PBP3 (Neisseria gonorrhoeae, UniProt P08149, H541N) (assay: not given). Settings: read-out: min. IC50 (minimum observed IC50 value); strain ATCC 19424.
Assay type: binding, Neisseria gonorrhoeae ATCC 19424

Row | Structure (SMILES) | IC50
17 | CC1(C)S[C@@H]2[C@H](NC(=O)C(C(=O)O)c3ccccc3)C(=O)N2[C@H]1C(=O)O (stereo partly shown) [CAR, carbenicillin] | 344 nM
18 | CC(C)(O/N=C(\C(=O)N[C@@H]1C(=O)N2C(C(=O)[O-])=C(C[n+]3ccccc3)CS[C@H]12)c1csc(N)n1)C(=O)O [CAZ, ceftazidime] | 18.3 nM

What follows are compounds tested against PBP1, PBP2 and PBP3 (Neisseria gonorrhoeae, UniProt P08149, A510V/A516G/A574V/F504L/H541N/I556V/I566V/K555Q/P552V) (assay: not given). Settings: read-out: min. IC50 (minimum observed IC50 value); strain ATCC 49226.
Assay type: binding, Neisseria gonorrhoeae ATCC 49226

Row | Structure (SMILES) | IC50
19 | CC(C)(O/N=C(\C(=O)N[C@@H]1C(=O)N2C(C(=O)[O-])=C(C[n+]3ccccc3)CS[C@H]12)c1csc(N)n1)C(=O)O [CAZ, ceftazidime] | 18.3 nM

Each compound was assayed against T5, PBP3 (Neisseria gonorrhoeae, UniProt Q5FAB9) (assay: not given). Settings: read-out: IC50 PBP3; strain ATCC 19424; membrane preparation, 30 min drug then Bocillin FL.
T5 sequence (Q5FAB9 22-469): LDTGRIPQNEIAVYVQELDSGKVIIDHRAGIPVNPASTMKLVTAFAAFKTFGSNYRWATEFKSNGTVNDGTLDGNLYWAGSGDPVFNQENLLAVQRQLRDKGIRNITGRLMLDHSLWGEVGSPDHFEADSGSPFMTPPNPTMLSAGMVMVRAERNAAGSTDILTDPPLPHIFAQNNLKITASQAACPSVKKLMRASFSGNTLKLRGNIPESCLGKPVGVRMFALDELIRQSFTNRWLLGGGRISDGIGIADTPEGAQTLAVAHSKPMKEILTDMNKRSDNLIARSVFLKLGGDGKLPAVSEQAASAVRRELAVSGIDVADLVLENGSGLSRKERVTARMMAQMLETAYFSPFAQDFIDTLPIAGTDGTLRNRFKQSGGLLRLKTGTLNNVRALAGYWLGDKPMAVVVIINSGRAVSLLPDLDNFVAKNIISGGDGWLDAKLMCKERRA

Row | Structure (SMILES) | IC50
20 | CC(C)(O/N=C(\C(=O)N[C@@H]1C(=O)N2C(C(=O)[O-])=C(C[n+]3ccccc3)CS[C@H]12)c1csc(N)n1)C(=O)O [CAZ, ceftazidime] | > 3660 nM

The compounds below were run against T5, PBP3 (assay: not given). Settings: read-out: IC50 PBP3; strain ATCC 49226; membrane preparation, 30 min drug then Bocillin FL.

Row | Structure (SMILES) | IC50
21 | CC(C)(O/N=C(\C(=O)N[C@@H]1C(=O)N2C(C(=O)[O-])=C(C[n+]3ccccc3)CS[C@H]12)c1csc(N)n1)C(=O)O [CAZ, ceftazidime] | > 3660 nM

Each compound was assayed against PBP2 (Neisseria gonorrhoeae, UniProt P08149) (assay: not given). Settings: read-out: IC50 for PBP2; across both strains ATCC 19424 and ATCC 49226.

Row | Structure (SMILES) | IC50
22 | CC(C)(O/N=C(\C(=O)N[C@@H]1C(=O)N2C(C(=O)[O-])=C(C[n+]3ccccc3)CS[C@H]12)c1csc(N)n1)C(=O)O [CAZ, ceftazidime] | 18.3 nM
